In patent US20230151432A1, “KIF18A INHIBITORS FOR TREATMENT OF NEOPLASTIC DISEASES” (AMGEN INC., priority 2020, published 2023):
pIC50: −log10 of the molar value.

Legend:
[1] = target: T1, mouse KIF18A (residues 1-467) (Mus musculus, UniProt Q91WD7); experiment: KIF18A MT-ATPase motor activity, ADP-Glo luminescence assay (Example 19); assay type: biochemical; settings: mouse KIF18A 4 nM, 30 μM ATP; read-out: IC50, KIF18A motor activity (MT-ATPase)
T1 construct: mouse KIF18A (residues 1-467, 4 nM); made in house
Experimental: A trio of KIF18A inhibitors (Compound C9, Compound C11, and Compound C12) were synthesized and tested in vitro for KIF18A inhibitory activity. […] The values represent mean t SEM from three independent experiments. […] As in vivo studies in mice were planned, the mouse KIF18A inhibitory effects of Compound C9 and C12 were assayed.
KIF18A compounds C9, C11, C12 were 2-fold serially diluted over a 22-point concentration range in DMSO using 384-well plate (Corning). Recombinant truncated kinesin motor proteins (human KIF18A (residues 1-467, 4 nM), mouse KIF18A (residues 1-467, 4 nM)) were expressed and purified. ADP-Glo luminescence assay (Promega) was used to measure the MT-ATPase motor activity. Porcine brain MTs were procured from Cytoskeleton Inc. Compounds were pre-incubated for <30 min in reaction buffer (15 mM Tris, pH 7.5, 10 mM MgCl2, 0.01% Pluronic F-68, 2% DMSO, 1 μM paclitaxel, 30 μg/mL MTs) with motor proteins at concentrations indicated above, 30 μM ATP was added to initiate the enzymatic reaction for 15 min at room temperature (RT). ADP-Glo reagents were added according to manufactures protocol, the luminescence intensity proportional to ADP present was measured using an EnVision plate reader (Perkin Elmer). Raw luminescence signal data was normalized to POC (percentage of positive control) and then Activity (%) was computed [POC=100×(sample signal−negative control signal)+(positive control signal−negative control signal). Activity (%)=POC−100]. The positive control (enzyme+substrate) and negative control (substrate alone) had equivalent concentrations of DMSO. Curve-fitting and IC50 values were determined by 4-parameter non-linear regression equation (variable slope) using GraphPad Prism 7.05 (GraphPad Software).

[2] = tested on: CAL-51 TNBC cells; experiment: Centrosome immunofluorescence imaging and cl-PARP Western blotting (Example 6); assay type: cell-based, human; settings: 0.5 μM; 24 h imaging, 48 h Western; TP53 wild-type
Experimental: To analyze the effects of a KIF18A inhibitor on mitotic centrosome/chromosome features and apoptosis of cancer cells, centrosome features in CAL-51 and MDA-MB-157 TNBC cells were analyzed by an immunofluorescence imaging analysis. Cells were seeded into Cell Carrier Ultra 96-well Polystyrene plate (PerkinElmer) in 200 μL of complete media and grown. […] Cells were washed twice with 200 μL Wash Buffer (1×PBS/0.5% BSA, Rockland Immunochemicals). Cells are stained with 100 μL anti-CETN3 mouse antibody (1:2000, H00001070-M01, Abnova) and anti-pericentrin rabbit antibody (1:2000, ab4448-100, Abcam) in 200 μL of Wash Buffer and incubated overnight at 4° C. Cells were washed twice with 200 μL Wash Buffer. Cells were stained with 100 μL secondary antibodies [goat anti-mouse IgG-alexa-488 (1:1000, A1 1029, Invitrogen) and goat anti-rabbit IgG-alexa-647 (1:1000, A21244, Invitrogen) in Wash Buffer for 2 hours at room temperature protected for light. Cells were washed twice followed by addition of 100 μL Wash Buffer containing Hoechst 33342 DNA dye (2 μg/mL). Cells were imaged on a PerkinElmer Ultraview Vox dual spinning disc confocal microscope using a 60× oil immersion objective with laser excitation wavelengths of 405 nm (Hoechst), 488 nm (alexa-488), and 647 nm (alexa-647). Representative maximal projection images were collected for mitotic objects from each treatment well. […]

[3] = tested on: human OVCAR-8 HGSOC xenograft model (TP53MUT, BRCA1silenced); experiment: OVCAR-8 xenograft efficacy study, oral dosing (Example 4); assay type: in vivo, mouse
Experimental: Female athymic nude mice were injected with 5×10^6 OVCAR-8 cells in 0.1 mL subcutaneously in the right flank. […] Tumor volume and animal body weight measurements were determined twice per week (study start day 25, study end day 47). Tumor measurements, formulas, and regression analysis as described above for FIGS. 5A-5B. Data was plotted using GraphPad Prism software (V7.0.4), tumor volume and body weight data are expressed as means plus or minus standard error of the mean and plotted as a function of time. Statistical significance of observed differences between growth curves were calculated using SLACR package (v.1.0.3).

[4] = tested on: human OVCAR-3 HGSOC xenograft model (TP53MUT, CCNE1AMP); experiment: OVCAR-3 xenograft efficacy study, oral dosing (Example 3); assay type: in vivo, mouse; settings: for tumor regression: day 25 to day 45
Experimental: Female athymic nude mice were injected with 5×10^6 cells in 0.1 mL subcutaneously in the right flank. After tumors were established (average tumor volume of 150 mm^3), animals were randomized into 4 treatment groups (vehicle alone, KIF18A inhibitor at 10, 30, or 100 mg/kg) with 10 animals per group and treated orally once per day (PO, QD) starting on day 25 post-tumor implantation. Tumor measurement was calculated from the length, width and height of tumors measured with a PRO-MAX electronic digital caliper (Japan Micrometer Mfg. Co. LTD). The tumor volume was calculated as [L×W×H] and expressed in mm^3. Tumor volume and animal body weight measurements were determined twice per week (study start day 25, study end day 45). A single mouse was removed from the study (KIF18A inhibitor 30 mg/kg group) due to abdominal distention, a finding likely unrelated to compound.
Tumor Growth Inhibition (TGI) and Tumor Regression formulas.
Data was plotted using GraphPad Prism software (V7.0.4), tumor volume and body weight data are expressed as means plus or minus standard error of the mean and plotted as a function of time. Statistical significance of observed differences between growth curves were calculated using SLACR package (v.1.0.3). Statistical significance for tumor regressions were performed by paired Student's t-Test on the initial and final tumor volumes with significant tumor regression p-values (***p≤0.0001) for all three KIF18A inhibitor treatment groups. KIF18A inhibitor dose 10 mg/kg (81% regression, 5 of 10 tumor-free), 30 mg/kg (98% regression, 8 of 9 tumor-free), and 100 mg/kg (97% regression, 7 of 10 tumor-free).

T1 sequence (Q91WD7 1-467): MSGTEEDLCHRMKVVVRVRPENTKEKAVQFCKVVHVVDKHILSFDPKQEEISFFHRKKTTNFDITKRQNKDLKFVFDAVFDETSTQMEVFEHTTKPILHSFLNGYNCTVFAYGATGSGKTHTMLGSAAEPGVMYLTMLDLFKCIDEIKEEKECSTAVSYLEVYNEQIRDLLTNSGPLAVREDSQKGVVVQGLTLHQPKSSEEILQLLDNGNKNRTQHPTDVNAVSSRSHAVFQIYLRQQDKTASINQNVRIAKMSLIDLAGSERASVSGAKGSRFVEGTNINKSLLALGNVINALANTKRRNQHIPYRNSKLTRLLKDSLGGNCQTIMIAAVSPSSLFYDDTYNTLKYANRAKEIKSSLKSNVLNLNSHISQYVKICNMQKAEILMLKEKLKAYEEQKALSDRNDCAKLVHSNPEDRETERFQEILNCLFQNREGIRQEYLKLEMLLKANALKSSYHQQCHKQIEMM
T1 sequence (P02550 whole entry partner, the tested form may be a part): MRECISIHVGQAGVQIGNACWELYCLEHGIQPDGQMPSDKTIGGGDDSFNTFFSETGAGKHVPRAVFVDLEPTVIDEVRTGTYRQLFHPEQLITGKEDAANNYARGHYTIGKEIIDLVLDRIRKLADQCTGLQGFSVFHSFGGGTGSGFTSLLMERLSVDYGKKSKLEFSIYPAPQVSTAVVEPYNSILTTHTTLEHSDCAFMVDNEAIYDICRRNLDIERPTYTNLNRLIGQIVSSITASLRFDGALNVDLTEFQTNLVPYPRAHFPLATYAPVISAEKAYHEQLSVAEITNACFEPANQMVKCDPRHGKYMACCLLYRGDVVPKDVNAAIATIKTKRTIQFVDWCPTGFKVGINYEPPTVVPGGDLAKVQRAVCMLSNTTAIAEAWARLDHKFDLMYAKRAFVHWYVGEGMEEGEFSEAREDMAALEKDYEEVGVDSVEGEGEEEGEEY
T1 sequence (P02554 whole entry partner, the tested form may be a part): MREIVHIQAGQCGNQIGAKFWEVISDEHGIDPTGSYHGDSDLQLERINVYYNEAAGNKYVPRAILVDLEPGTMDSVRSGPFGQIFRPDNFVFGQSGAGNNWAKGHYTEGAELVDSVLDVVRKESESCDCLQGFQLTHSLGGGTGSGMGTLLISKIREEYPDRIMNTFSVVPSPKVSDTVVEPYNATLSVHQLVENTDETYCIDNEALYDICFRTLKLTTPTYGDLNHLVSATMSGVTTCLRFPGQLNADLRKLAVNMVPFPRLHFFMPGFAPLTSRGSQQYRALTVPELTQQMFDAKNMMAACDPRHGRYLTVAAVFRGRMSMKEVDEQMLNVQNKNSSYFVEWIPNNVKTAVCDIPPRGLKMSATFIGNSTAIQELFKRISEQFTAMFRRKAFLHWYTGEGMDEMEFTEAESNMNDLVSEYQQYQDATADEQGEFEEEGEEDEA

## CC(C)(C)NS(=O)(=O)c1cccc(NC(=O)c2ccc(S(=O)(=O)NC(C)(C)C)cc2N2CCC3(CC2)CC3)c1 [Compound C9, 4-(N-(tert-butyl)sulfamoyl)-N-(3-(N-(tert-butyl)sulfamoyl)phenyl)-2-(6-azaspiro[2.5]octan-6-yl)benzamide]
[1]
  pIC50: 6.63

## CC(C)(CO)Nc1ccc(C(=O)Nc2cccc(S(=O)(=O)C3CCCC3)c2)c(N2CCC3(CC2)CC3)n1 [Compound C11, N-(3-(cyclopentylsulfonyl)phenyl)-6-((1-hydroxy-2-methylpropan-2-yl)amino)-2-(6-azaspiro[2.5]octan-6-yl)nicotinamide]
[2]
  mitotic cell centrosome features and apoptosis: no changes in centrosome features or apoptosis

## Cc1cc(NC(=O)c2ccc(NS(=O)(=O)CCO)cc2N2CCC3(CC2)CC3)nc(N2CCC(F)(F)CC2)n1 [Compound C14, N-(2-(4,4-Difluoropiperidin-1-yl)-6-methylpyrimidin-4-yl)-4-((2-hydroxyethyl)sulfonamido)-2-(6-azaspiro[2.5]octan-6-yl)benzamide]
[3]; 10 mg/kg PO QD, day 25 to day 47
  tumor growth inhibition (TGI): 57%
[3]; 30 mg/kg PO QD
  tumor-free animals: 4 of 10
[3]; 30 mg/kg PO QD, day 25 to day 47
  tumor regression: 86%
[3]; 100 mg/kg PO QD
  tumor-free animals: 8 of 10
[3]; 100 mg/kg PO QD, day 25 to day 47
  tumor regression: 98%
[4]; 10 mg/kg PO QD
  tumor-free animals: 5 of 10
  tumor regression: 81%
[4]; 30 mg/kg PO QD
  tumor-free animals: 8 of 9
  tumor regression: 98%
[4]; 100 mg/kg PO QD
  tumor-free animals: 7 of 10
  tumor regression: 97%
[4]; tumor re-growth assessment after cessation of treatment
  durable tumor regressions and cures, share of the animals: ≥ 50%
